Patent US10669314B2, “Polypeptide” (Affibody AB, priority 2014, dated 2020)

How the values were obtained:
[1] = tested on: IL-6 triggered serum amyloid-A (SAA) protein release; experiment: Serum Amyloid A (SAA) mouse model; assay type: in vivo; settings: 25 mg/kg s.c. 9 h before hIL-6 5 μg/kg i.p.; Balb/c mice
Procedure: The IL-6 targeting Z variant Z06814 (SEQ ID NO:1512) and a control Z variant Z04726 (SEQ ID NO:1535) binding an irrelevant target, were cloned and produced in fusion with the ABD variant PP013 (SEQ ID NO:1554) as described in Example 2. Four groups of Balb/c mice (n=8) were injected subcutaneously (s.c.) with various doses (0, 0.025, 2.5 or 25 mg/kg body weight) of Z06814-ABD 9 h prior to intraperitoneal (i.p.) administration of hIL-6 at 5 μg/kg (R&D Systems). A fifth group of mice (n=8) received 25 mg/kg of Z04726-ABD. Two additional control groups of mice received PBS (n=4) and 25 mg/kg of Z06814-ABD (n=8), respectively, but no subsequent IL-6 injection. After 20 h, the blood was taken by cardiac puncture and serum was collected.
Serum was assessed for the content of murine SAA by ELISA (Tridelta) according to the manufacturer's instructions. In brief, diluted serum samples were added to SAA-precoated plates together with anti-SAA-HRP. The plates were incubated for 1 h and then washed four times. TMB substrate was added for 20 min and the reaction was stopped with stop solution. The absorbance was measured at 450 nm using a microplate reader (Victor^3, Perkin Elmer).

[2] = tested on: IL-6 trans-signaling dependent secretion of MCP-1 in HUVECs; experiment: HUVEC trans-signaling assay, MCP-1 production; assay type: cell-based, human; settings: fusions with ABD variant PP013, in the presence of HSA
Procedure: To address the trans-signaling pathway, a second assay was used. Herein, human umbilical vein endothelial cells (HUVECs) were stimulated with hIL-6 and soluble hIL-6Rα and the readout was the production of monocyte chemoattractant protein-1 (MCP-1). HUVECs (Lonza) were grown in EGM-2 bullet kit media (Lonza) and passaged in culture no more than eight times. Cells were grown until 75% confluence before use. Cells were detached using trypsin/EDTA (Lonza), resuspended and washed once in fresh medium. Next, cells were counted and dispensed into 96 well flat bottom plates at a density of 2×10^4 cells per well. Cells were cultured overnight at 37° C. in a humidified 5% CO2 atmosphere. […] The pre-mixed solutions with the test molecules and hIL-6/hIL-6Rα were then transferred to wells containing HUVECs, which were incubated for 24 h at 37° C. in a humidified 5% CO2 atmosphere. Cell free supernatant was collected after the incubation period and human MCP-1 levels were determined by sandwich ELISA using the MCP-1 Duoset ELISA development system (R&D Systems).
Half area 96-well ELISA plates were coated with anti-MCP-1 capture antibody (R&D Systems) at a concentration of 1 μg/ml. Plates were incubated overnight at 4° C., washed twice in tap water and blocked for 1 h in PBSC. […] The absorbance was measured at 450 nm using a microplate reader (Victor^3, Perkin Elmer).

## Z04726-ABD: control Z variant Z04726 (SEQ ID NO:1553) binding an irrelevant target, in fusion with ABD variant PP013 [reference compound]
[1]
  SAA protein levels in serum: 500 to 600 µg/mL

## Z03638: control Z variant binding an irrelevant target, tested in fusion with ABD variant PP013 [reference compound]
[2]
  inhibition of IL-6 mediated trans-signaling in HUVECs: did not
